What was measured:
[1] = tested on: enteric hemorrhage of each rat; assay: Test Example 1: inhibition of enteric hemorrhage induced by intravenous lipopolysaccharide (E. coli) in rats; type: in vivo, SD male rats; details: ip, 30 min before LPS 10 mg/kg i.v., 1 h after LPS, read-out: Inhibition rate; for inhibition in vivo at 50 mg/kg: 50 mg/kg i.p.; for inhibition in vivo at 12.5 mg/kg: 12.5 mg/kg i.p.; for inhibition in vivo at 25 mg/kg: 25 mg/kg i.p.
Protocol: A drug having a test compound dissolved in the form of its Na^+ salt or Cl^- salt in saline or suspended in saline containing 0.5% by weight of carboxymethyl cellulose (manufactured by Nakalai Tesque K. K., hereinafter referred to simply as CMC), was intraperitonially injected to SD male rats of seven weeks old. […] One hour after the injection of the lipopolysaccharide, enteric hemorrhage of each rat was inspected, and the degree of hemorrhage was evaluated by the following ratings:
(§1) 2: Slight subepithelial congestion
(§2) 4: Subepithelial congestion over a wide range and slight submucous congestion
6: Submucous congestion over a wide range, flow out of blood from submucous tissues and necrosis
For the control, the test was conducted in the same manner except that no test compound was added.
The inhibition rate was obtained by the following formula.
(§3) Inhibition rate (%)=(A-B)/A×100
(§4) B: rating of a rat administered with a test compound

[2] = Test Example 2: Acute Toxicity; details: mouse, in vivo, ip, DDY male mice, five mice per group, read-out: 50% lethal dose LD50
Protocol: Using DDY male mice of five weeks old, each group consisted of five mice. A test compound was suspended in saline containing 0.5% by weight of CMC and intraperitonially injected at a dose of 0.1 ml/10 g. 24 hours after the injection, survival or death was observed, and the number of death/the number of tested animals was obtained, and the 50% lethal dose LD50 was estimated, whereby LD50 of each of Compound Nos. 4, 9, 10, 15, 21, 25, 30, 33, 37, 44, 47, 58, 60 and 67 was at least 100 mg/kg.

SD male rats = assay: Test Example 3: survival of rats after intravenous lipopolysaccharide (E. coli); type: in vivo; details: 50 mg/kg i.p. 30 min before and again 3 h after LPS 10 mg/kg i.v.; 48 h; control 0%
Protocol: A drug having a test compound suspended in saline containing 0.5% by weight of CMC, was intraperitonially administered to SD male rats of seven weeks old so that the dose would be 50 mg/kg. 30 minutes after the injection of the drug, lipopolysaccharide derived from E. coli (manufactured by Difco Company, Product No. 0127:B8) was intravenously injected into the tail vein of each rat so that the dose would be 10 mg/kg. Three hours after the injection of the lipopolysaccharide, the drug was again intraperitonially administered in the same amount.
(§5) Survival rate (%)=(number of survived animals/number of tested

DDY male mice = assay: Test Example 4: survival of mice after intravenous platelet-activating factor (PAF); type: in vivo; details: 100 mg/kg i.p. 1 h before PAF (10 μg/ml, 15 ml/kg i.v.); 1 h after PAF; control 0% (Nos. 21, 71, 78) or 14% (Nos. 22, 47)
Protocol: A drug having a test compound dissolved in the form of its Na^+ salt or or Cl^- salt in saline or suspended in saline containing 0.5% by weight of CMC, was intraperitonially injected to DDY male mice of five weeks old so that the dose would be 100 mg/kg. One hour after the injection of the drug, a solution (containing 1% by weight of dimethylsulfoxide) having a platelet-activating factor (PAF) dissolved in saline to a concentration of 10 μg/ml, was intravenously injected into the tail vein of each mouse in an amount of 15 ml/kg.
One hour after the injection of PAF, survival or death of each mouse was observed, and the survival rate was obtained by the following formula, whereby with Compound Nos. 21, 47, 71 and 78, the survival rate was 100%, and with Compound No. 22, the survival rate was 80%.
Further, for the control, the test was conducted in the same manner except that no test compound was added, whereby with each control corresponding to the test group for each of Compound Nos. 21, 71 and 78, the survival rate was 0%, and in the case of Compound Nos. 22 and 47, the survival rate of the control was 14%.
as §5

[3] = tested on: enteric hemorrhage of each rat; assay: Test Example 5: inhibition of enteric hemorrhage induced by intravenous PAF in rats; type: in vivo, SD male rats; details: 12.5 mg/kg i.p. 30 min before PAF (10 μg/ml, 1 ml/kg i.v.); 1 h after PAF
Protocol: A drug having a test compound dissolved in the form of its Na^+ salt or or Cl^- salt in saline or suspended in saline containing 0.5% by weight of CMC, was intraperitonially injected to SD male rats of seven weeks old so that the dose of the test compound would be 12.5 mg/kg. 30 minutes after the injection of the drug, a solution (containing 1% by weight of dimethylsulfoxide) having PAF dissolved in saline to a concentration of 10 μg/ml, was intravenously injected into the tail vein of each rat in an amount of 1 ml/kg.
One hour after the injection of PAF, enteric hemorrhage of each rat was inspected, and the degree of hemorrhage was evaluated by the following ratings:
as §1, §2
6: Submucous congestion over a wide range, flow out of blood from the submucous tissues and necrosis
as §3, §4

| Compound | inhibition in vivo at 50 mg/kg [1] | inhibition in vivo at 12.5 mg/kg [1] | LD50 at 24 h [2] | also measured |
| --- | --- | --- | --- | --- |
| CC(C)(C)n1ncc(NCc2ccncc2)c(C=O)c1=O [Compound No. 24, 2-tert-butyl-4-formyl-5-(4-pyridylmethylamino) pyridazin-3-(2H)-one] | 100% |  |  |  |
| CON=Cc1c(NCc2ccncc2)cnn(C(C)(C)C)c1=O [Compound No. 16, 2-tert-butyl-5-(4-pyridylmethylamino)-4-methoxyiminomethylidenylpyridazin-3-(2H)-one] |  |  |  | inhibition in vivo at 100 mg/kg ([1]; 100 mg/kg i.p.): 100% |
| CC1CCOC(c2c(NCc3ccncc3)cnn(C(C)(C)C)c2=O)O1 (stereo not shown) [Compound No. 44, 2-tert-butyl-4-(4-methyl-1,3-dioxan-2-yl)-5-(4-pyridylmethylamino)pyridazin-3-(2H)-one] |  | 77% | ≥ 100 mg/kg |  |
| C[S+]([O-])c1c(NCc2ccncc2)cnn(C(C)(C)C)c1=O (stereo not shown) [Compound No. 8, 2-tert-butyl-4-methanesulfinyl-5-(4-pyridylmethylamino)pyridazin-3-(2H)-one] |  | 72% |  |  |
| Cc1c(NC(=O)c2ccncc2)cnn(C(C)(C)C)c1=O [Compound No. 1, 2-tert-butyl-4-methyl-5-(4-pyridylcarbonylamino)pyridazin-3-(2H)-one] |  |  |  | inhibition in vivo at 25 mg/kg [1]: 96% |
| Cn1ncc(NCc2ccncc2)c(CO)c1=O [Compound No. 70, 4-hydroxymethyl-2-methyl-5-(4-pyridylmethylamino)pyridazin-3-(2H)-one] |  | 72% |  | Survival rate (SD male rats): 50% |
| CC(C)(C)n1ncc(NCc2ccncc2)c(C#N)c1=O [Compound No. 21, 2-tert-butyl-4-cyano-5-(4-pyridylmethylamino)pyridazin-3-(2H)-one] | 100% | 65% | ≥ 100 mg/kg | inhibition in vivo at 25 mg/kg [1]: 96%; Survival rate (DDY male mice): 100% |
| COCc1c(N(C)Cc2ccncc2)cnn(C)c1=O [Compound No. 73, 4-methoxymethyl-2-methyl-5-(N-methyl-4-pyridylmethylamino)pyridazin-3-(2H)-one] |  | 76% |  | Survival rate (SD male rats): 75%; Inhibition rate [3]: 92% |
| COC(=O)c1c(NCc2ccncc2)cnn(C(C)(C)C)c1=O [Compound No. 22, 2-tert-butyl-4-methoxycarbonyl-5-(4-pyridylmethylamino)pyridazin-3-(2H)-one] |  | 41% |  | inhibition in vivo at 25 mg/kg [1]: 100%; Survival rate (DDY male mice): 80% |
| CC(C)(C)n1ncc(NCc2ccncc2)c(C=NCc2ccncc2)c1=O [Compound No. 2, 2-tert-butyl-5-(4-pyridylmethylamino)-4-(4-pyridylmethyliminomethylidenyl)pyridazin-3-(2H)-one] |  | 75% |  | inhibition in vivo at 25 mg/kg [1]: 98% |
| CSc1c(NCc2ccncc2)cnn(C(C)(C)C)c1=O [Compound No. 7, 2-tert-butyl-4-methylthio-5-(4-pyridylmethylamino)pyridazin-3-(2H)-one] | 100% | 78% |  |  |
| CC(=O)N(C)c1c(NCc2ccncc2)cnn(C)c1=O [Compound No. 69, 2-methyl-4-(N-methyl)acetylamino-5-(4-pyridylmethylamino)pyridazin-3-(2H)-one] |  | 78% |  | Inhibition rate [3]: 100% |
| CC(C)(C)n1ncc(NCc2ccncc2)c(N(S(C)(=O)=O)S(C)(=O)=O)c1=O [Compound No. 30, 2-tert-butyl-4-N,N-bis(methanesulfonyl)amino-5-(4-pyridylmethylamino)pyridazin-3-(2H)-one] |  |  | ≥ 100 mg/kg |  |
| CC(C)(C)n1ncc(NCc2ccncc2)c(N)c1=O [Compound No. 10, 4-amino-2-tert-butyl-5-(4-pyridylmethylamino)pyridazin-3-(2H)-one] | 94% | 50% | ≥ 100 mg/kg |  |
| COCc1c(NCc2ccncc2)cnn(C)c1=O [Compound No. 105, 4-methoxymethyl-2-methyl-5-(4-pyridylmethylamino)pyridazin-3-(2H)-one] |  | 92% |  |  |
| CCC(=O)Nc1c(NCc2ccncc2)cnn(C(C)(C)C)c1=O [Compound No. 28, 2-tert-butyl-4-propionylamide-5-(4-pyridylmethylamino)pyridazin-3-(2H)-one] | 83% | 42% |  |  |
| CCn1ncc(NCc2ccncc2)c(C#N)c1=O [Compound No. 47, 4-cyano-2-ethyl-5-(4-pyridylmethylamino)pyridazin-3-(2H)-one] |  | 75% | ≥ 100 mg/kg | Survival rate (DDY male mice): 100% |
| CC(C)(C)n1ncc(NCc2ccncc2)c(S(C)(=O)=O)c1=O [Compound No. 9, 2-tert-butyl-4-methanesulfonyl-5-(4-pyridylmethylamino)pyridazin-3-(2H)-one] | 43% |  | ≥ 100 mg/kg |  |
